Test results from ChEMBL document CHEMBL4270488, “Antibacterial Compounds from Marine Bacteria, 2010-2015” (J Nat Prod, 2017).
Converted amounts (≈) assume the structure as drawn. *1 amine or outer side, *2 acyl side, *3 side chain or, on linkers, in order; H or OH if unused. Where a SMILES comes first, the peptide text is derived from it. Bridges are numbered along the chain shown (N, C = ends). Roman numbers before positions name the chains, in order. [ ]: non-standard residue; d: D form. Actinocin(1to9) = Cc1c2oc3c(C)ccc(C(=O)[*:2])c3nc-2c(C(=O)[*:1])c(N)c1=O; Pro(4-oxo) = O=C1CN[C@H](C(=O)O)C1; NMeV = CN[C@H](C(=O)O)C(C)C; Sar = CNCC(=O)O

Assays:
[1] = test system: Mycobacterium tuberculosis variant bovis; test: Antibacterial activity against Mycobacterium bovis BCG str. Pasteur 1173P2 incubated for 3 days by GFP based fluorescence assay; assay type: functional; details: 72 h
[2] = test system: Mycobacterium tuberculosis variant bovis; test: Antibacterial activity against Mycobacterium bovis BCG str. Pasteur 1173P2 incubated for 16 hrs; assay type: functional

Structure (SMILES): Cc1c2oc3c(C)ccc(C(=O)N[C@@H]4C(=O)N[C@H](C(C)C)C(=O)N5CCC[C@H]5C(=O)N(C)CC(=O)N(C)[C@@H](C(C)C)C(=O)O[C@@H]4C)c3nc-2c(C(=O)N[C@@H]2C(=O)N[C@H](C(C)C)C(=O)N3CC(O)C[C@H]3C(=O)N(C)CC(=O)N(C)[C@@H](C(C)C)C(=O)O[C@@H]2C)c(N)c1=O (stereo not given in full)
- MIC [1]: 0.2 to 0.5 µg/mL (≈ 0.157 to 0.393 µM)

Structure (SMILES): COC(=O)N[C@H]1[C@@H](C)O[C@@H](O[C@H]2C/C=C(\C)[C@@H]3C=C[C@@H]4[C@@H](O[C@H]5C[C@@H](O[C@H]6C[C@@H](O)[C@@H](O[C@@H]7C[C@@H](O)[C@@H](OC)[C@H](C)O7)[C@H](C)O6)[C@@H](O)[C@H](C)O5)[C@@H](C)C[C@H](C)[C@H]4[C@]3(C)C(=O)C3=C(O)[C@@]4(C[C@@H](C)C(CO)=C[C@H]4/C=C/2C)OC3=O)C[C@]1(C)N
- MIC [2]: 0.8 to 1.5 µg/mL (≈ 0.691 to 1.3 µM)

Structure (SMILES): COC(=O)N[C@H]1[C@@H](C)O[C@@H](O[C@H]2C/C=C(\C)[C@@H]3C=C[C@@H]4[C@@H](O[C@H]5C[C@@H](O[C@H]6C[C@@H](O)[C@@H](O[C@@H]7C[C@@H](O)[C@@H](OC)[C@H](C)O7)[C@H](C)O6)[C@@H](O)[C@H](C)O5)[C@@H](C)C[C@H](C)[C@H]4[C@]3(C)C(=O)C3=C(O)[C@@]4(C[C@@H](C)C(CO)=C[C@H]4/C=C/2C)OC3=O)C[C@]1(C)[N+](=O)[O-]
- MIC [2]: 0.8 to 1.5 µg/mL (≈ 0.674 to 1.26 µM)

Structure (SMILES): Cc1c2oc3c(C)ccc(C(=O)N[C@@H]4C(=O)N[C@H](C(C)C)C(=O)N5CCC[C@H]5C(=O)N(C)CC(=O)N(C)[C@@H](C(C)C)C(=O)O[C@@H]4C)c3nc-2c(C(=O)N[C@@H]2C(=O)N[C@H](C(C)C)C(=O)N3CCC[C@H]3C(=O)N(C)CC(=O)N(C)[C@@H](C(C)C)C(=O)O[C@@H]2C)c(N)c1=O [DACTINOMYCIN] (I: T[dV]P[Sar][NMeV] / II: T[dV]P[Sar][NMeV]; ester I:1-I:C, II:1-II:C; linker I:N-II:N via Actinocin(1to9))
- MIC [1]: 0.2 to 0.5 µg/mL (≈ 0.159 to 0.398 µM)

Structure (SMILES): Cc1c2oc3c(C)ccc(C(=O)N[C@@H]4C(=O)N[C@H](C(C)C)C(=O)N5CCC[C@H]5C(=O)N(C)CC(=O)N(C)[C@@H](C(C)C)C(=O)O[C@@H]4C)c3nc-2c(C(=O)N[C@@H]2C(=O)N[C@H](C(C)C)C(=O)N3CC(=O)C[C@H]3C(=O)N(C)CC(=O)N(C)[C@@H](C(C)C)C(=O)O[C@@H]2C)c(N)c1=O (I: T[dV][Pro(4-oxo)][Sar][NMeV] / II: T[dV]P[Sar][NMeV]; ester I:1-I:C, II:1-II:C; linker I:N-II:N via Actinocin(1to9))
- MIC [1]: 0.2 to 0.5 µg/mL (≈ 0.158 to 0.394 µM)
